Patent US3962256A, “2-Aminomethyl benzimidazole derivatives” (Delalande S.A., priority 1973, dated 1976)

Columns and labels:
[1] = system: isolated ileum of the guinea-pig; experiment: Antihistaminic: opposing histamine contraction of isolated ileum; settings: promethazine as standard
Description: The compounds of formula I, introduced in the conserving medium, are capable of opposing the contractural action of histamine on the isolated ileum of the guinea-pig. This activity is evaluated by taking promethazine as standard.

[2] = system: gastric ulcers, provoked in a rat by tying of the pylorus (Shay ulcers); experiment: Antiulcerous: reduction of Shay ulcers (tying of the pylorus); type: in vivo; settings: 50 mg/Kg/i.d.
Description: The compounds of formula (I) administered by intraduodenal means reduce the extent of gastric ulcers, provoked in a rat by tying of the pylorus (Shay ulcers).
By way of example, there is listed in the following Table IX, the results obtained by the administrations of 50 mg/Kg/i.d. of different compounds of formula (I).

[3] = system: oedema caused by the sub-plantar injection of carraghenin; experiment: Antiinflammatory: reduction of sub-plantar oedema caused by carraghenin, rat; type: in vivo; settings: 100 mg/Kg/p.o.
Description: These properties are shown by a diminution of the local oedema caused by the sub-plantar injection of a phlogogenic agent, such as carraghenin, in the rat following the oral administration of compounds of formula (I).
The following Table VI lists, by way of example, the percentage reduction of the oedems caused by the sub-plantar injection of carraghenin, resulting from the administration of 100 mg/Kg/p.o. of different compounds of formula (I).

[4] = Lethal doses / percentage mortality, oral; type: in vivo; settings: 2 000 mg/Kg/p.o.; 2000 mg/kg
From the text: As a result of a comparison between the pharmacologically active doses mentioned above and the lethal doses listed in the following Table XII, the difference between said doses is sufficiently great to permit the utilisation of the compounds of formula (I) in therapeutics.

volume of urine emitted = experiment: Diuretic: augmentation of urinary elimination; type: in vivo; settings: 25 mg/Kg/p.o., mouse, 6 hours
Description: The compounds of formula (I), administered by oral means to the mouse, simultaneously with a volume of 1 ml. of an isotonic solution of sodium chloride per 25 g of the corporeal weight of the mouse, are capable of provoking an augmentation of the volume of urine emitted by reference to control animals, the volume being measured for 6 hours following administration.
By way of example, the following Table XI lists the results obtained by the administration of 25 mg/Kg/p.o. of different compounds of formula (I).

[5] = system: bronchoconstriction provoked in the guinea-pig by acetylcholine; experiment: Antibronchoconstrictive and anticholinergic: bronchoconstriction by intravenous acetylcholine, Konzett method; type: in vivo
From the text: Injected by intraveinous or intraduodenal means, the compounds of formula (I) are capable of opposing the bronchoconstriction provoked in the guinea-pig by the itraveinous injection of acetylcholine by the Konzett method.
By way of example, the following Table VII lists the results obtained by the administration of different compounds of formula (I)

[6] = system: rat suffering from high blood pressure; experiment: Antihypertensive: return of systolic arterial pressure to normal in rats with high blood pressure; type: in vivo; settings: 200 mg/Kg/p.o.
From the text: The compounds of formula (I), administered by oral means to a rat suffering from high blood pressure, are capable of lowering the systolic arteriel pressure.
By way of example, there is provided in the following Table IV the results obtained by administration of different compounds of formula (I).

[7] = system: excursions into the escape enclosure; experiment: Central nervous system stimulation: excursions in the escape test; type: in vivo; settings: 100 mg/Kg/p.o., mouse
Description: The compounds of formula (I), administered by oral means to the mouse, provoke an augmentation of the number of excursions into the escape enclosure.
Thus, following the administration of 100 mg/Kg/p.o. of the compounds of Code Nos. 72 457 and 72 736, an augmentation of 30% in the number of excursions in the escape test, is observed.

[8] = system: explorations in the escape enclosure; experiment: Sedative: reduction of number of explorations in the escape enclosure; type: in vivo; settings: 100 mg/Kg/p.o., mouse
Description: The compounds of formula (I), administered by oral means to the mouse, reduce the number of explorations in the escape enclosure.
By way of example, the following Table VIII lists the results obtained by the administration of 100 mg/Kg/p.o. of different compounds of formula (I).

[9] = system: isolated heart of a guinea-pig; experiment: Vasodilatatory: coronary flow of isolated heart; settings: 1 μg/ml in perfusion liquid
Description: The compounds of formula (I) are capable of augmenting the flow of the coronary vessels of the isolated heart of a guinea-pig when said compounds are added in the perfusion liquid of said organ.
By way of example, there can be found in the following Table X, the percentage augmentation of the flow of the isolated heart of a guinea-pig by adding different compounds of formula (I) to the perfusion liquid, in a concentration of 1 μg/ml.

[10] = system: isolated duodenum of the rat; experiment: Spasmolytic: opposing barium chloride contraction of isolated duodenum; settings: papaverine as standard
Description: The compounds of formula (I), introduced in the conserving medium are capable of opposing the contractural action of barium chloride on the isolated duodenum of the rat. This activity is evaluated by taking papaverine as standard.

Structure (SMILES) | antihistaminic activity relative to promethazine [1] | Percentage reduction of Shay ulcers [2] [%] | Percentage reduction of sub-plantar oedema [3] [%] | Percentage mortality [4] [%] | Percentage augmentation of urinary elimination (volume of urine emitted) [%] | Percentage inhibition of bronchoconstriction ([5]; 100 mg/kg/i.d.) [%] | Percentage of rats with high blood pressure whose systolic arteriel pressure is returned to normal [6] [%] | augmentation in the number of excursions in the escape test [7] [%] | Percentage reduction of number of explorations in the escape enclosure [8] [%] | Percentage augmentations of flow of isolated heart of a guinea-pig [9] [%] | Percentage inhibition of bronchoconstriction ([5]; 10 mg/kg/i.v.) [%] | spasmolytic activity relative to papaverine [10]
O=C(CCn1c(CN2CCCC2)nc2ccccc21)c1ccc(Cl)cc1 [72 366] | equivalent activity to that of promethazine | 40 | 60 | 0 |  |  |  |  |  |  |  | 
Cc1ccc(C(=O)CCn2c(CN3CCOCC3)nc3ccccc32)c(C)c1 [72 447] |  | 35 | 40 | 0 | 70 | 50 |  |  |  |  |  | 
Cc1ccc(C(=O)CCn2c(CN(C)C)nc3ccccc32)cc1 [72 457] |  | 30 |  | 0 | 45 | 80 | 50 | 30 |  |  |  | 
CCN(CC)Cc1nc2ccccc2n1CCC(=O)c1ccc(OC)c(OC)c1.O=C(O)/C=C\C(=O)O [72 692] |  |  |  |  | 70 |  |  |  | 30 | 60 |  | 
CCN(CC)Cc1nc2ccccc2n1CCC(=O)c1ccc(C)cc1C.O=C(O)/C=C\C(=O)O [72 736] |  | 30 |  |  |  |  |  | 30 |  |  | 90 | equivalent spasmolytic actvity to that of papaverine
